In publication PMC8383266 (Biochemistry, 2021):

Target: BlaC (β-lactamase) (Mycobacterium tuberculosis, UniProt P9WKD3, G144S)
Type: biochemical

NC(=O)[C@@H]1CC[C@@H]2CN1C(=O)N2OS(=O)(=O)O [avibactam]
activity of BlaC G132S in the presence of avibactam (Figure S13, not shown): we found BlaC G132S is also more sensitive to avibactam
